Experimental data as given in patent US20230142338A1, “THIOPHENYL DERIVATIVES USEFUL FOR MODULATING NUCLEIC ACID SPLICING” (REMIX THERAPEUTICS INC., priority 2020, published 2023).

Legend:
Assay type in all cases: cell-based
HTT CJ mRNA [1] = assay: Gene panel canonical junction qPCR assay: HTT; settings: Table 3, concentration having 50% response in CJ decrease, read-out: HTT IC50 (decrease in CJ mRNA levels)
Protocol: (§1) Compounds described herein were used to modulate RNA transcript abundance in cells. The expression of a target mRNA was measured by detecting the formation of an exon-exon junction in the canonical transcript (CJ). A compound mediated exon-inclusion event was detected by observing an increase in formation of a new junction with an alternative exon (AJ). Real-time qPCR assays were used to detect these splicing switches and interrogate the potency of various compounds towards different target genes. A high-throughput real time quantitative PCR (RT-qPCR) assay was developed to measure these two isoforms of the mRNA (CJ and AJ) for an exemplary gene, HTT, together with a control housekeeping gene, GAPDH or GUSB or PPIA, used for normalization. Briefly, the A673 or K562 cell line was treated with various compounds described herein (e.g., compounds of Formula (I)). After treatment, the levels of the HTT mRNA targets were determined from each sample of cell lysate by cDNA synthesis followed by qPCR.
(§2) The A673 cell line was cultured in DMEM with 10% FBS. Cells were diluted with full growth media and plated in a 96-well plate (15,000 cells in 100 ul media per well). The plate was incubated at 37° C. with 5% CO2 for 24 hours to allow cells to adhere. An 11-point 3-fold serial dilution of the compounds was made in DMSO then diluted in media in an intermediate plate. Compounds were transferred from the intermediate plate to the cell plate with the top dose at a final concentration of 10 uM in the well. Final DMSO concentration was kept at or below 0.25%. The cell plate was returned to the incubator at 37° C. with 5% CO2 for an additional 24 hours.
(§3) The K562 cell line was cultured in IMDM with 10% FBS. For K562, cells were diluted with full growth media and plated in either a 96-well plate (50,000 cells in 50 uL media per well) or a 384-well plate (8,000-40,000 cells in 45 uL media per well). An 11-point 3-fold serial dilution of the compounds were made in DMSO then diluted in media in an intermediate plate. Compound was transferred from the intermediate plate to the cell plate with the top dose at a final concentration of 10 uM in the well. Final DMSO concentration was kept at or below 0.25%. Final volume was 100 uL for 96-well plate and 50 uL for 384-well plate. The cell plate was then placed in an incubator at 37° C. with 5% CO2 for 24 hours.
(§4) The cells were then gently washed with 50 uL-100 uL cold PBS before proceeding to addition of lysis buffer. 30 uL-50 uL of room temperature lysis buffer with DNAse I (and optionally RNAsin) was added to each well. Cells were shaken/mixed thoroughly at room temperature for 5-10 minutes for lysis to take place and then 3 uL-5 uL of room temperature stop solution was added and wells were shaken/mixed again. After 2-5 minutes, the cell lysate plate was transferred to ice for RT-qPCR reaction setup. The lysates could also be frozen at −80° C. for later use.
(§5) In some cases, a direct lysis buffer was used. An appropriate volume of 3× lysis buffer (10 mM Tris, 150 mM NaCl, 1.5%-2.5% Igepal and 0.1-1 U/uL RNAsin, pH 7.4) was directly added to either K562 or A673 cells in media and mixed by pipetting 3 times. The plates were then incubated at room temperature with shaking/rocking for 20-50 minutes to allow for lysis to take place. After this time, the cell lysate plate was transferred to ice to set up for the RT-qPCR reactions. The lysates could also be frozen at −80° C. for later use.
(§6) To set up 10 uL RT-qPCR reactions, cell lysates were transferred to 384-well qPCR plates containing the master mix according to the table below. The plates were sealed, gently vortexed, and spun down before the run. The volumes were adjusted accordingly in some instances where the reaction was carried in 20 uL. The table below summarizes the components of the RT-qPCR reactions:
(§7) The RT-qPCR reaction was performed using a QuantStudio (ThermoFisher) under the following fast cycling conditions. […]

SMN2 CJ mRNA = assay: Gene panel canonical junction qPCR assay: SMN2; settings: Table 3, concentration having 50% response in CJ decrease, read-out: SMN2 IC50 (decrease in CJ mRNA levels)
Protocol: as §1, §2, §3, §4, §5, §6, §7

HTT CJ mRNA [2] = assay: Splicing assay (RT-qPCR): decrease in HTT canonical junction (CJ) mRNA; settings: A673 or K562 cells, 24 hours treatment; concentration having 50% response in CJ mRNA decrease
Protocol: as §1, §2, §3, §4, §5, §6, §7

HTT AJ mRNA = assay: Splicing assay (RT-qPCR): increase in HTT alternative junction (AJ) mRNA; settings: A673 or K562 cells, 24 hours treatment; concentration having 50% response in AJ mRNA increase
Protocol: as §1, §2, §3, §4, §5, §6, §7

Target C CJ mRNA = assay: Gene panel canonical junction qPCR assay: Target C; settings: Table 3, concentration having 50% response in CJ decrease, read-out: Target C IC50 (decrease in CJ mRNA levels)
Protocol: as §1, §2, §3, §4, §5, §6, §7

IC50 (HTT CJ mRNA [1])	IC50 (SMN2 CJ mRNA)	IC50 (Target C CJ mRNA)	SMILES	AC50 (HTT CJ mRNA [2])	AC50 (HTT AJ mRNA)
> 10 nM	100 to 1000 nM	< 100 nM	Cc1cn2cc(NC(=O)c3sc(N4CCN(C)CC4)cc3F)cc(F)c2n1 [Compound 127, 3-fluoro-N-[8-fluoro-2-methylimidazo [1,2-a]pyridin-6-yl]-5-(4-methylpiperazin-1-yl) thiophene-2-carboxamide]	> 10000 nM	> 10000 nM
> 10 nM	1000 to 10000 nM	> 10 nM	Cc1cn2cc(NC(=O)c3sc(N4CCN(C)C(C)C4)cc3F)cc(F)c2n1 (stereo not shown) [Compound 129, 5-(3,4-dimethylpiperazin-1-yl)-3-fluoro-N-[8-fluoro-2-methylimidazo[1,2-a]pyridin-6-yl]thiophene-2-carboxamide]	> 10000 nM	> 10000 nM
> 10 nM	1000 to 10000 nM	> 10 nM	Cc1cn2cc(NC(=O)c3sc(N4CCNC5(CC5)C4)cc3F)cc(F)c2n1 [Compound 132, 5-[4,7-diazaspiro[2.5]octan-7-yl]-3-fluoro-N-[8-fluoro-2-methylimidazo[1,2-a]pyridin-6-yl]thiophene-2-carboxamide]	> 10000 nM	> 10000 nM
1000 to 10000 nM	100 to 1000 nM	1000 to 10000 nM	Cc1cn2cc(NC(=O)c3sc(N4CC5(CNC5)C4)cc3F)cc(F)c2n1 [Compound 134, 5-[2,6-diazaspiro[3.3]heptan-2-yl]-3-fluoro-N-[8-fluoro-2-methylimidazo[1,2-a]pyridine-6-yl]thiophene-2-carboxamide]	1000 to 10000 nM	1000 to 10000 nM
> 10 nM	100 to 1000 nM	> 10 nM	Cc1cn2cc(NC(=O)c3sc(N4CCC(N5CCCC5)C4)cc3F)cc(F)c2n1 (stereo not shown) [Compound 136, 5-[[1,3′-bipyrrolidin]-1′-yl]-3-fluoro-N-[8-fluoro-2-methylimidazo[1,2-a]pyridin-6-yl]thiophene-2-carboxamide]	> 10000 nM	> 10000 nM
> 10 nM	> 10 nM	100 to 1000 nM	Cc1cn2cc(NC(=O)c3sc(N4CCC(NC(C)(C)C)C4)cc3F)cc(F)c2n1 (stereo not shown) [Compound 137, 5-[3-(tert-butylamino)pyrrolidin-1-yl]-3-fluoro-N-[8-fluoro-2-methylimidazo[1,2-a]pyridin-6-yl]thiophene-2-carboxamide]	> 10000 nM	> 10000 nM
1000 to 10000 nM	100 to 1000 nM	> 10 nM	Cc1cn2cc(NC(=O)c3sc(N4CCC(N(C)C)C4)cc3F)cc(F)c2n1 (stereo not shown) [Compound 138, 5-[3-(dimethylamino)pyrrolidin-1-yl]-3-fluoro-N-[8-fluoro-2-methylimidazo[1,2-a]pyridin-6-yl]thiophene-2-carboxamide]	1000 to 10000 nM	> 10000 nM
> 10 nM	1000 to 10000 nM	> 10 nM	Cc1cn2cc(NC(=O)c3sc(N4CCN5CCCC5C4)cc3F)cc(F)c2n1 (stereo not shown) [Compound 139, 3-fluoro-N-[8-fluoro-2-methylimidazo[1,2-a]pyridin-6-yl]-5-[hexahydro-1H-pyrrolo[1,2-a]pyrazin-2-yl] thiophene-2-carboxamide]	> 10000 nM	> 10000 nM
> 10 nM	1000 to 10000 nM	> 10 nM	Cc1cn2cc(NC(=O)c3sc(N4CCC(NC(C)(C)C)CC4)cc3F)cc(F)c2n1 [Compound 141, 5-[4-(tert-butylamino)piperidin-1-yl]-3-fluoro-N-[8-fluoro-2-methylimidazo[1,2-a]pyridin-6-yl]thiophene-2-carboxamide]	> 10000 nM	> 10000 nM
1000 to 10000 nM	1000 to 10000 nM	1000 to 10000 nM	CCNC1CCN(c2cc(F)c(C(=O)Nc3cc(F)c4nc(C)cn4c3)s2)CC1 [Compound 142, 5-[4-(ethylamino)piperidin-1-yl]-3-fluoro-N-[8-fluoro-2-methylimidazo [1,2-a]pyridin-6-yl]thiophene-2-carboxamide]	1000 to 10000 nM	1000 to 10000 nM

The next lines start with the compound.

SMILES	IC50 (HTT CJ mRNA [1])	IC50 (SMN2 CJ mRNA)	IC50 (Target C CJ mRNA)	AC50 (HTT CJ mRNA [2])	AC50 (HTT AJ mRNA)
Cc1cn2cc(NC(=O)c3sc(N4CCNC(C)(C)C4)cc3F)cc(F)c2n1 [Compound 131, 5-(3,3-dimethylpiperazin-1-yl)-3-fluoro-N-[8-fluoro-2-methylimidazo[1,2-a]pyridin-6-yl] thiophene-2-carboxamide]	1000 to 10000 nM	100 to 1000 nM	> 10 nM	1000 to 10000 nM	1000 to 10000 nM
Cc1cn2cc(NC(=O)c3sc(N4CC(C)(C)NC(C)(C)C4)cc3F)cc(F)c2n1 [Compound 133, 3-fluoro-N-[8-fluoro-2-methylimidazo[1,2-a]pyridin-6-yl]-5-(3,3,5,5-tetramethylpiperazin-1-yl)thiophene-2-carboxamide]	> 10 nM	1000 to 10000 nM	> 10 nM	> 10000 nM	> 10000 nM
Cc1cn2cc(NC(=O)c3sc(N4C[C@H]5CC[C@@H](C4)N5)cc3F)cc(F)c2n1 [Compound 143, 5-[(1R,5S)-3,8-diazabicyclo[3.2.1]octan-3-yl]-3-fluoro-N-[8-fluoro-2-methylimidazo[1,2-a]pyridin-6-yl]thiophene-2-carboxamide]	> 10 nM	1000 to 10000 nM	1000 to 10000 nM	> 10000 nM	> 10000 nM
Cc1cn2cc(NC(=O)c3sc(C4CCN(C)CC4)cc3F)cc(F)c2n1 [Compound 145, 3-fluoro-N-[8-fluoro-2-methylimidazo [1,2-a]pyridin-6-yl]-5-(1-methylpiperidin-4-yl)thiophene-2-carboxamide]	1000 to 10000 nM	100 to 1000 nM	1000 to 10000 nM	1000 to 10000 nM	1000 to 10000 nM
CCN1CCC(c2cc(F)c(C(=O)Nc3cc(F)c4nc(C)cn4c3)s2)CC1 [Compound 146, 5-(1-ethylpiperidin-4-yl)-3-fluoro-N-[8-fluoro-2-methylimidazo[1,2-a]pyridin-6-yl]thiophene-2-carboxamide]	1000 to 10000 nM	100 to 1000 nM	< 100 nM	1000 to 10000 nM	1000 to 10000 nM
Cc1cn2cc(NC(=O)c3sc(C4C[C@@H](C)N[C@@H](C)C4)cc3F)cc(F)c2n1 (stereo partly drawn) [Compound 147, 5-[(2R,6S)-2,6-dimethylpiperidin-4-yl]-3-fluoro-N-[8-fluoro-2-methylimidazo[1,2-a]pyridin-6-yl]thiophene-2-carboxamide]	100 to 1000 nM	< 100 nM	1000 to 10000 nM	100 to 1000 nM	1000 to 10000 nM
Cc1cn2cc(NC(=O)c3sc(N(C)C4CC(C)(C)NC(C)(C)C4)cc3F)cc(F)c2n1 [Compound 149, 3-fluoro-N-[8-fluoro-2-methylimidazo[1,2-a]pyridin-6-yl]-5-[methyl(2,2,6,6-tetramethylpiperidin-4-yl)amino]thiophene-2-carboxamide]	> 10 nM	100 to 1000 nM	> 10 nM	> 10000 nM	> 10000 nM
